Experiments:
Type in all cases: cell-based, mouse
BV2 microglial cells = test: Cell viability assay (MTS) on BV2 cells; settings: for IC50: Mus musculus, BV-2, MTS, 24 h
Method: (§1) BV2 microglial cells (SCSP-5208, Cell Bank, Chinese Academy of Sciences, Shanghai, China) were incubated in high-glucose DMEM supplemented with 10% fetal bovine serum and 1% penicillin and streptomycin in a humidified atmosphere of 5% CO2 at 37 °C.
(§2) BV2 cells were plated in 96-well microplates at 20,000 cells per well (100 μL/well) and incubated for 24 h. Then, 100 μL of compounds (diluted with medium to a final concentration of 1.56–100 μM) was added, and each concentration had 3 parallel wells. After 24 h, the cell viability was measured by MTS assay. The absorbance was detected at 490 nm. The percentage of viability was obtained from the following formula: ODdrug-treated/ODnormal cells × 100. The IC50 values of test compounds were calculated by linear regression plots.

[1] = Cell viability assay (MTS) on BV2 cells; settings: mouse, BV2 microglial cells, MTS
Method: as §1, §2

TNF-α = test: ELISA of TNF-α released by LPS-stimulated BV2 cells; settings: for effect on production of TNF-α: result in words
Method: (§3) BV2 cells were plated in 96-well microplates at 40,000 cells per well (100 μL/well) and incubated for 24 h. Then, 50 μL of LPS solution with a final concentration of 100 ng/mL and 50 μL of compounds (diluted with medium to a final concentration of 0.75–40 μM) were added, and each concentration had 3 parallel wells. The supernatant was collected after 24 h. Then, according to the manufacturer’s instructions, the ELISA assay kit was used to measure the concentrations of IL-6 and TNF-α. The absorbance was detected at 450 nm.

IL-6 = test: ELISA of IL-6 released by LPS-stimulated BV2 cells; settings: for effect on production of IL-6: result in words
Method: as §3

[2] = system: NO release from LPS-stimulated BV2 cells; test: NO release inhibition in LPS-stimulated BV2 cells (Griess method); settings: for Nitrite (NO release amount): BV2 cells induced by LPS, Griess test; for Nitrite (NO release amount) / inhibition at 20 µM: compound at 20 μM; for IC50 / inhibition at 20 µM: Mus musculus, BV-2, LPS-stimulated BV2 cells; for IC50: 24 h; for inhibition at 20 µM: read-out: NO inhibition rate
Method: BV2 cells stimulated by lipopolysaccharide (LPS) lead to an increase in NO release. Therefore, we used the inhibitory ability of the target compounds on NO as a preliminary method to evaluate their anti-neuroinflammatory properties. We evaluated the inhibitory ability of isatin–chalcone hybrid derivatives 4a–t on the release of NO from BV2 cells at 20 μM. The release amount of NO was detected by the Griess method, and the actual release amount of NO was calculated based on the experimental data.
BV2 cells were plated in 96-well microplates at 40,000 cells per well (100 μL/well) and incubated for 24 h. Then, 50 μL of LPS solution with a final concentration of 100 ng/mL and 50 μL of compounds (diluted with medium to a final concentration of 0.31–20 μM) were added, and each concentration had 3 parallel wells. The NO assay kit was used to carry out nitrite assays after 24 h. The 50 μL of culture medium was mixed with the GrisR1 (50 μL) and GrisR2 (50 μL) of the NO assay kit in another new 96-well plate. The absorbance was detected at 540 nm. The percentage of inhibition of NO was obtained from the following formula: [(Rlps − RB − RC)/(Rlps − RB)] × 100, where Rlps is the release amount of only the LPS-treated group, RB is the release amount of the normal control and RC is the release amount of the test compound and LPS-treated group. The IC50 values of test compounds were calculated by linear regression plots.

| SMILES | IC50 (BV2 microglial cells) [µM] | cytotoxicity (BV2 microglial cells; under the concentration of 12.5 μM) | viability at 24 h, 3.1 µM ([1]; compound at 3.1 μM, read-out: cell viability (cell survival rate)) [%] | viability at 24 h, 6.3 μM ([1]; compound at 6.3 μM (printed 6.23 μM for 4b), read-out: cell viability (cell survival rate)) [%] | viability at 24 h, 12.5 µM ([1]; compound at 12.5 μM) [%] | viability at 24 h, 25 µM ([1]; compound at 25 μM, 24 h) [%] | reduction of TNF-α levels (TNF-α; compound at 1.5 μM, p < 0.0001) [%] | effect on production of TNF-α (TNF-α) | reduction of IL-6 levels (IL-6; compound at 1.5 μM, p < 0.0001) [%] | effect on production of IL-6 (IL-6) | Nitrite (NO release amount) [2] [µM] | IC50 [2] [µM] | inhibition at 20 µM [2] [%] |
| --- | --- | --- | --- | --- | --- | --- | --- | --- | --- | --- | --- | --- | --- |
| CCOC(=O)CN1C(=O)/C(=C/C(=O)/C=C/c2ccccc2)c2ccccc21 [Compound 4b, Ethyl 2-((E)-2-oxo-3-((E)-2-oxo-4-phenylbut-3-en-1-ylidene)indolin-1-yl)acetate] | 34.6 | did not show obvious cytotoxicity | 98.3 | 89.9 | 79.5 | 48 | 37 | decreased significantly | 47 | decreased significantly | 0.69 ± 0.01 | 1.6 | 98 |
| COc1cc(C(=O)/C=C2/C(=O)N(CC(=O)OCCCc3ccccc3)c3ccccc32)cc(OC)c1OC [Compound 5g, 3-Phenylpropyl (E)-2-(2-oxo-3-(2-oxo-2-(3,4,5-trimethoxyphenyl)ethylidene)indolin-1-yl)acetate] | 48.5 | – | – | – | – | – | – | relatively weaker inhibitory effects | – | relatively weaker inhibitory effects | – | 6 | – |
| CCOC(=O)CN1C(=O)/C(=C/C(=O)c2cc(OC)c(OC)c(OC)c2)c2cc(C)ccc21 [Compound 9e, Ethyl (E)-2-(5-methyl-2-oxo-3-(2-oxo-2-(3,4,5-trimethoxyphenyl)ethylidene)indolin-1-yl)acetate] | 80.6 | – | – | – | – | – | – | relatively weaker inhibitory effects | – | relatively weaker inhibitory effects | – | 10.3 | 72 |
| CCOC(=O)CN1C(=O)/C(=C/C(=O)c2cc(OC)c(OC)c(OC)c2)c2ccccc21 [Compound 4j, Ethyl (E)-2-(2-oxo-3-(2-oxo-2-(3,4,5-trimethoxyphenyl)ethylidene)indolin-1-yl)acetate] | 71.8 | – | – | – | – | – | – | relatively weaker inhibitory effects | – | relatively weaker inhibitory effects | 8.6 ± 0.1 | 15.7 | 71 |

— article PMC11990898, “Novel Isatin–Chalcone Hybrid Molecules: Design, Synthesis and Anti-Neuroinflammatory Activity Evaluation” (Molecules, 2025)
